In US11253525B2, “Inhibitors of indoleamine 2,3-dioxygenase and methods of their use” (BRISTOL-MYERS SQUIBB COMPANY, priority 2018, dated 2022) one finds IC50 data, which are given here for 42 compounds.

Some results are limits rather than exact numbers.

T1 sequence (P14902 whole entry): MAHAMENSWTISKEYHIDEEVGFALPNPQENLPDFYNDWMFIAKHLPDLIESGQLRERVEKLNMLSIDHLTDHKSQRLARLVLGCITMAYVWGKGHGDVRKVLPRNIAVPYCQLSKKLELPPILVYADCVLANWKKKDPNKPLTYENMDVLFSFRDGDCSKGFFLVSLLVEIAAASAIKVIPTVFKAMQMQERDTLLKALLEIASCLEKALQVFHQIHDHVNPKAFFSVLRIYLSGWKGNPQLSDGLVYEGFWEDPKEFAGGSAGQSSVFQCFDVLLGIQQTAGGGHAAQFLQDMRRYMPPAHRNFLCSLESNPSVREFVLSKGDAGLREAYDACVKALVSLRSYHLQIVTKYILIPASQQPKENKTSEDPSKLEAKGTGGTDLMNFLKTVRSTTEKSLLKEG

The first assay concerns the target T1, indoleamine 2,3-dioxygenase (IDO) (Homo sapiens, UniProt P14902).
T1 construct: replaced with media containing IFNγ (#285-IF/CF, R&D Systems) at a final concentration of 25 ng/mL; endogenous in cells; host or cells: HeLa (ATCC CCL-2), IFN-gamma stimulated
The assay can be described thus: HeLa cell-based indoleamine 2,3-dioxygenase (IDO) assay, kynurenine production. Conditions: HeLa cells, IFNγ 25 ng/mL, 48 hour incubation; read-out: IDO Hela IC50. The method, then: Assessment of Inhibitor Activity in HeLa Cell-Based Indoleamine 23-Dioxygenase (IDO) Assay
Cells were maintained in a humidified incubator at 37° C. in 5% CO2.
IDO activity was assessed as a function of kynurenine production as follows: HeLa cells were seeded in a 96-well culture plate at a density of 5,000 cells/well and allowed to equilibrate overnight. […] A serial dilution of each test compound was added to the cells in a total volume of 200 μL of culture medium. After a further 48 hour incubation, 170 μL of supernatant was transferred from each well to a fresh 96-well plate. 12.1 μL of 6.1N trichloroacetic acid (#T0699, Sigma-Aldrich) was added to each well and mixed, followed by incubation at 65° C. for 20 minutes to hydrolyze N-formylkynurenine, the product of indoleamine 2,3-dioxygenase, to kynurenine. The reaction mixture was then centrifuged for 10 mins at 500×g to sediment the precipitate. 100 μL of the supernatant was transferred from each well to a fresh 96-well plate. […] Kynurenine concentrations were determined by measuring absorbance at 480 nm and calibrating against an L-kynurenine (#K8625, Sigma-Aldrich) standard curve using a SPECTRAMAX® M2e microplate reader (Molecular Devices). The percentage activity at each inhibitor concentration was determined and IC50 values assessed using nonlinear regression.
Regarding `CCO[C@H](c1ccc([C@H](COC)CC(=O)O)cc1Nc1cnc(OC)nc1)C(F)(F)F` (relative stereo) [Example 54, 3-(4-(1-ethoxy-2,2,2-trifluoroethyl)-3-((2-methoxypyrimidin-5-yl)amino)phenyl)-4-methoxybutanoic Acid], the IC50 amounted to 100 nM.
As for `CCOc1ncc(Nc2cc([C@H](CC)CC(=O)O)ccc2[C@@H](OCC)C(F)(F)F)cn1` (single isomer, unassigned) [Example 12], the IC50 came out at 20 nM.
Consider `CCO[C@@H](c1ccc([C@@H](COC)CC(=O)O)cc1NC(=O)Nc1ccc(Cl)cc1F)C(F)(F)F` (single isomer, unassigned) [Example 75], for which the IC50 was determined as 40 nM.
Regarding `CCO[C@H](c1ccc([C@H](CC)CC(=O)O)cc1Nc1cnc(COC)nc1)C(F)(F)F` (single isomer, unassigned) [Example 16], the IC50 is 610 nM.
With `CC[C@H](CC(=O)O)c1ccc([C@@H](OC)C(F)(F)F)c(Nc2cnc(C)nc2)c1` (relative stereo) [Example 90, (R)-3-(3-((2-methylpyrimidin-5-yl)amino)-4-((R)-2,2,2-trifluoro-1-methoxyethyl)phenyl)pentanoic acid], the IC50 amounted to 150 nM.
With `CCOc1ncc(Nc2cc([C@@H](CC)CC(=O)O)ccc2[C@H](CC)N2CCOCC2)cn1` (single isomer, unassigned) [Example 118-2], the IC50 amounted to 430 nM.
In the case of `CCO[C@@H](c1ccc([C@H](CC)CC(=O)O)cc1Nc1cnc(C)nc1)C(F)(F)F` (single isomer, unassigned) [Example 39], the IC50 was 100 nM.
Regarding `CCO[C@H](c1ccc([C@@H](COC)CC(=O)O)cc1NC(=O)Nc1ccc(C)cc1)C(F)(F)F` (single isomer, unassigned) [Example 60], the IC50 amounted to 910 nM.
On to `CCc1ncc(Nc2cc([C@H](CC)CC(=O)O)ccc2[C@@H](CC)N2CCOCC2)cn1` (single isomer, unassigned) [Example 119], for which the IC50 was 20 nM.
`CCO[C@@H](c1ccc([C@H](CC)CC(=O)O)cc1NC(=O)Nc1ccc(C)cc1)C(F)(F)F` (single isomer, unassigned) [Example 31]: the IC50 amounted to 20 nM.
On the same count and under the same terms, as for `CCO[C@H](c1ccc([C@@H](CC)CC(=O)O)cc1Nc1cnc(OC)nc1)C(F)(F)F` (single isomer, unassigned) [Example 22], the figure is 10 nM.
Consider `CCOc1ncc(Nc2cc([C@H](CC)CC(=O)O)ccc2[C@@H](OC)C(F)(F)F)cn1` (single isomer, unassigned) [Example 91], for which the IC50 was 30 nM.
Consider `CCO[C@H](c1ccc([C@H](CC)CC(=O)O)cc1Nc1cnc(C)nc1)C(F)(F)F` (relative stereo) [Example 17, (R)-3-(4-((R)-1-ethoxy-2,2,2-trifluoroethyl)-3-((2-methylpyrimidin-5-yl)amino)phenyl)pentanoic acid], for which the IC50 came out at 130 nM.
Regarding `CCO[C@H](c1ccc([C@H](COC)CC(=O)O)cc1Nc1ccc(Cl)cc1)C(F)(F)F` (single isomer, unassigned) [Example 58], the IC50 came out at 20 nM.
With `CCO[C@@H](c1ccc([C@@H](CC)CC(=O)O)cc1Nc1ccc(F)cc1)C(F)(F)F` (single isomer, unassigned) [Example 51], the concentration for half-maximal inhibition (IC50) came out at 20 nM.
Regarding `CC[C@@H](CC(=O)O)c1ccc([C@@H](CC)N2CCOCC2)c(Nc2cnc(C(F)(F)F)nc2)c1` (relative stereo) [Example 130, (S)-3-(4-((R)-1-morpholinopropyl)-3-((2-(trifluoromethyl)pyrimidin-5-yl)amino)phenyl)pentanoic acid], the IC50 is 90 nM.
As for `CCOc1ncc(Nc2cc([C@@H](CC)CC(=O)O)ccc2[C@H](CC)N2CCOCC2)cn1` (single isomer, unassigned) [Example 118-4], the IC50 was 10 nM.
On the same count and under the same terms, then `CCO[C@H](c1ccc([C@H](COC)CC(=O)O)cc1NC(=O)Nc1ccc(Cl)cc1F)C(F)(F)F` (single isomer, unassigned) [Example 53], with 40 nM; and `CCOc1ncc(Nc2cc([C@@H](COC)CC(=O)O)ccc2[C@H](CC)N2CCOCC2)cn1` (single isomer, unassigned) [Example 103], with 200 nM.
Turning to `CCOc1ncc(Nc2cc([C@H](CC)CC(=O)O)ccc2[C@@H](CC)C2CCOCC2)cn1` (single isomer, unassigned) [Example 125-1], the IC50 came to 40 nM.
With `CCO[C@H](c1ccc([C@@H](CC)CC(=O)O)cc1Nc1cnc(OC)cn1)C(F)(F)F` (single isomer, unassigned) [Example 25], the IC50 is 10 nM.
With `CCOc1ncc(Nc2cc([C@@H](CC)CC(=O)O)ccc2[C@@H](OC)C(F)(F)F)cn1` (single isomer, unassigned) [Example 87], the IC50 was 130 nM.
Turning to `CC[C@@H](CC(=O)O)c1ccc([C@@H](CC)N2CCOCC2)c(Nc2ccc(C#N)cc2)c1` (single isomer, unassigned) [Example 124], the IC50 is 70 nM.
On to `CCO[C@H](c1ccc([C@@H](CC)CC(=O)O)cc1Nc1cnc(CC)nc1)C(F)(F)F` (single isomer, unassigned) [Example 29], for which the IC50 turned out to be 20 nM.
Regarding `CCO[C@@H](c1ccc([C@@H](COC)CC(=O)O)cc1Nc1ccc(Cl)cc1)C(F)(F)F` (single isomer, unassigned) [Example 79], the IC50 was determined as 10 nM.
Consider `CCO[C@@H](c1ccc([C@H](COC)CC(=O)O)cc1NC(=O)Nc1ccc(Cl)cc1F)C(F)(F)F` (single isomer, unassigned) [Example 68], for which the IC50 was determined as 240 nM.
On to `CC[C@H](CC(=O)O)c1ccc([C@H](OC)C(F)(F)F)c(Nc2cnc(C)nc2)c1` (single isomer, unassigned) [Example 94], for which the IC50 came out at 70 nM.
As to `CC[C@H](CC(=O)O)c1ccc([C@H](OC)C(F)(F)F)c(Nc2cnc(C(F)(F)F)nc2)c1` (single isomer, unassigned) [Example 96], the IC50 is 10 nM.
Regarding `CCO[C@@H](c1ccc([C@@H](CC)CC(=O)O)cc1Nc1cnc(OC)nc1)C(F)(F)F` (single isomer, unassigned) [Example 43], the IC50 amounted to 10 nM.
In the case of `CCO[C@@H](c1ccc([C@@H](COC)CC(=O)O)cc1Nc1cnc(OC)nc1)C(F)(F)F` (single isomer, unassigned) [Example 76], the IC50 was determined as 700 nM.

The assay is the same for the next values; noted with them: HeLa cells, IFNγ 25 ng/mL, 48 hour incubation; read-out: IDO Hela IC50 class (A < 50, B < 250, C < 2000).
On to `CCOc1ncc(Nc2cc([C@H](CC)CC(=O)O)ccc2[C@H](CC)C2CCOCC2)cn1` (single isomer, unassigned) [Example 125-2], for which the IC50 is less than 50 nM.
On to `CCO[C@H](c1ccc([C@@H](CC)CC(=O)O)cc1Nc1ccc(F)cc1)C(F)(F)F` (relative stereo) [Example 30, (S)-3-(4-((R)-1-ethoxy-2,2,2-trifluoroethyl)-3-((4-fluorophenyl)amino)phenyl)pentanoic acid], for which the concentration for half-maximal inhibition (IC50) is less than 50 nM.
As for `CC[C@H](c1ccc([C@@H](COC)CC(=O)O)cc1Nc1ccc(C#N)cc1)N1CCOCC1` (single isomer, unassigned) [Example 101-2], the IC50 lay within 250 to 2000 nM.
For the compound `CC[C@H](c1ccc([C@@H](COC)CC(=O)O)cc1Nc1ccc(F)cc1)N1CCOCC1` (single isomer, unassigned) [Example 111], the IC50 fell in the range of 250 to 2000 nM.
For the compound `CCO[C@@H](c1ccc([C@@H](CC)CC(=O)O)cc1Nc1ccc(F)cc1)C(F)(F)F` (single isomer, unassigned) [Example 51], the IC50 was less than 50 nM.
As to `CC[C@H](CC(=O)O)c1ccc([C@H](OC)C(F)(F)F)c(Nc2ccc(Cl)cc2)c1` (single isomer, unassigned) [Example 84-1], the IC50 is less than 50 nM.
In the case of `CC[C@@H](c1ccc([C@@H](COC)CC(=O)O)cc1Nc1ccc(C#N)cc1)N1CCOCC1` (single isomer, unassigned) [Example 101-1], the IC50 was less than 50 nM.
Consider `CCO[C@H](c1ccc([C@@H](CC)CC(=O)O)cc1Nc1ccc(C#N)cc1)C(F)(F)F` (single isomer, unassigned) [Example 26], for which the IC50 is less than 50 nM.
Consider `CC[C@H](CC(=O)O)c1ccc([C@@H](OC)C(F)(F)F)c(Nc2ccc(Cl)cc2)c1` (single isomer, unassigned) [Example 83-2], for which the IC50 was less than 50 nM.
For `CC[C@@H](c1ccc([C@@H](COC)CC(=O)O)cc1Nc1ccc(Cl)cc1)N1CCOCC1` (relative stereo) [Example 105, (S)-3-(3-((4-chlorophenyl)amino)-4-((S)-1-morpholinopropyl)phenyl)-4-methoxybutanoic acid], the IC50 was less than 50 nM.
On to `CC[C@H](CC(=O)O)c1ccc([C@@H](CC)N2CCOCC2)c(Nc2ccc(C#N)cc2)c1` (relative stereo) [Example 122, (R)-3-(3-((4-cyanophenyl)amino)-4-((R)-1-morpholinopropyl)phenyl)pentanoic acid], for which the IC50 was less than 50 nM.
For `CCO[C@@H](c1ccc([C@H](CC)CC(=O)O)cc1Nc1ccc(C#N)cc1)C(F)(F)F` (single isomer, unassigned) [Example 37], the IC50 was less than 50 nM.
For `CCO[C@@H](c1ccc([C@H](COC)CC(=O)O)cc1Nc1cnc(C)nc1)C(F)(F)F` (single isomer, unassigned) [Example 74], the half-maximal inhibitory concentration (IC50) lay in the range of 250 to 2000 nM.

Usually IC50 stands for the point on the concentration scale where inhibition reaches its midpoint.
